The test system of the assay is H460 cells. Put plainly: Cell proliferation assay (resazurin, CellTiter-Blue), H460 cells. The format is cell-based. Conditions: for GI50: Homo sapiens; for Effect of the C16 modification on potency (in words): comment on the data of Table 2 (H460 cells). The method, then: Cell Culture: All cell-culture work was conducted in a class II biological safety cabinet. H460 cells (P2-P4, American Type Culture Collection) were maintained in RPMI-1640 medium supplemented with 10% fetal bovine serum (FBS). HL-60 cells (P2-P4, American Type Cuture Collection) were maintained in RPMI-1640 medium supplemented with 10% FBS. MES-SA/Dx-5 cells (P2-P4, European Collection of Authenticated Cell Cultures) were maintained in McCoy's 5A medium supplemented with 10% FBS.
Cell Proliferation Assay: H460 and MES-SA/Dx-5 cells were grown to approximately 80% confluence, and then were trpysinized, collected, and pelleted by centrifugation (10 min at 183 x g, 24° C.), and HL-60 cells were grown to confluence and directly pelleted by centrifugation (10 min at 183 × g, 24° C.). The supernatant was discarded and the cell pellet was resuspended in 10 mL of fresh medium. A sample was diluted 10-fold in fresh medium, and the concentration of cells was determined using a hemacytometer. The cell suspension was diluted to a concentration of 3000 cells/100 μL. The wells of a pre-sterilized 96-well plate were charged with 100 μL per well of the diluted cellular suspension. The plate was incubated for 24 h at 37° C. (5% CO2).
Stock solutions of each compound in DMSO were diluted with the appropriate media to 100 nM solutions (1% DMSO), which were then serially diluted with the appropriate media, and 100-uL aliquots of the resulting solutions were added to the wells containing adhered cells to achieve final concentrations of 0.39 nM to 50 nM. After incubating at 37° C. for 72 h (5% CO2), 20 μL of resazurin solution (Promega CellTiter-Blue® Cell Viability Assay) was added to each well. After incubating at 37° C. for 2.0 h (5% CO2), the fluorescence (544 nm excitation/590 nm emission) was recorded using a microplate reader (SpectraMax PLUS384) as a measure of viable cells.
Percent growth inhibition was calculated for each well, based upon the following formula: Percent growth inhibition=100×(S−B0)/(Bt−B0) where S is the sample fluorescence, Bt is the average fluorescence of an untreated population of cells at the completion of the assay, and B0 is the average fluorescence of an untreated population of cells at the beginning of the assay.
Each compound was assayed at eight separate concentrations per experiment. The percent inhibition at each concentration was plotted against log (concentration), and a curve fit was generated using the XLfit4 plugin (IDBS Software) running in Excel (Microsoft). GI50 values were computed to reflect the concentrations at which the resulting curves pass through 50% inhibition.

The mark [1] stands for this setting: NCI-H460, H460 cells, 72 h incubation, read-out: GI50.

Here are results for 15 compounds from patent publication US20250144227A1, “C-16 MODIFIED TRIOXACARCINS, ANTIBODY DRUG CONJUGATES, AND USES THEREOF” (President and Fellows of Harvard College, priority 2021, published 2025).

Where two headings read alike, the source gives them in different places.

As usually defined, the GI50 is the concentration that inhibits growth by half.

As to `COc1c2c(c(O)c3c4c(c(C)cc13)C1OC3(COCc5ccccc5)OC1[C@@](O)(O4)[C@@]31CO1)C(=O)CCC2` (stereo partly drawn) [compound 17, (2S,2′R,3a′R, 13a′R)-2′-((Benzyloxy)methyl)-12′, 13a′-dihydroxy-7′-methoxy-5′-methyl-3a′ 4′,8′,9′,10′,13a′-hexahydro-2′H,11′H-spiro [oxirane-2,1′-[2,4]epoxyfuro[3,2-b]naphtho[2,3-h]chromen]-11′-one], the GI50 under setting [1] was over 0.1 µM. Consider `COc1c2c(c(O)c3c4c(c(C)cc13)C1O[C@]3(COCc5ccccc5)O[C@H]1[C@@](OC)(O4)[C@@]31CO1)C(=O)CCC2` (stereo partly drawn) [compound 18, (2R,2′R,3a′R, 13a′R)-2′-((Benzyloxy)methyl)-12′-hydroxy-7′,13a′-dimethoxy-5′-methyl-3a′,4′,8′,9′,10′,13a′-hexahydro-2′H, 11′H-spiro [oxirane-2,1′-[2,4]epoxyfuro[3,2-b]naphtho[2,3-h]chromen]-11′-one], for which the GI50 under setting [1] was over 0.1 µM. As for `COc1c2c(c(O)c3c4c(c(C)cc13)C1OC3(CO)OC1[C@@](OC)(O4)[C@@]31CO1)C(=O)CCC2` (stereo partly drawn) [compound 19, (2R.2′R,3a′R, 13a′R)-12′-Hydroxy-2′-(hydroxymethyl)-7′,13a′-dimethoxy-5′-methyl-3a′, 4′,8′,9′,10′,13a′-hexahydro-2′H, 11′H-spiro [oxirane-2,1′-[2,4]epoxyfuro[3,2-b]naphtho[2,3-h]chromen]-11′-one], where the note is “NCI-H460, 72 h”, halving of growth (GI50) required 0.0055 µM. As for `COc1c2c(c(O)c3c4c(c(C)cc13)C1OC3(CO)OC1[C@@](O)(O4)[C@@]31CO1)C(=O)CCC2` (stereo partly drawn) [compound 20, (25,2′R,3a′R, 13a′R)-12′, 13a′-dihydroxy-2′-(hydroxymethyl)-7′-methoxy-5′-methyl-3a′, 4′,8′,9′,10′,13a′-hexahydro-2′H,11′H-spiro[oxirane-2,1′-[2.4]epoxyfuro[3,2-b]naphtho[2,3-h]chromen]-11′-one], under setting [1], the GI50 was determined as 0.015 µM. As for `COc1c2c(c(O)c3c4c(c(C)cc13)C1O[C@]3(CO)O[C@H]1[C@@](OC)(O4)[C@@]3(O)CBr)C(=O)CCC2` (stereo partly drawn) [compound 21, (1R,2R,3aR,13aR)-1-(bromomethyl)-1,12-dihydroxy-2-(hydroxymethyl)-7,13a-dimethoxy-5-methyl-1,2,3a,4,8,9,10,13a-octahydro-11H-2,4-epoxyfuro[3,2-b]naphtho[2,3-h]chromen-11-one], the GI50 under setting [1] was 0.008 µM. Same read-out and setting: the same measure for `CCCOCC12OC3c4c(C)cc5c(OC)c6c(c(O)c5c4O[C@](OC)(C3O1)[C@@]21CO1)C(=O)CCC6` (stereo partly drawn) [compound 22, (2R,2′R,3a′R,13a′R)-12′-Hydroxy-7′,13a′-dimethoxy-5′-methyl-2′-(propoxymethyl)-3a′, 4′,8′,9′,10′,13a′-hexahydro-2′H,11′H-spiro[oxirane-2,1′-[2.4]epoxyfuro[3,2-b]naphtho[2,3-h]chromen]-11′-one]: 0.022 µM; for `C=CCOCC12OC3c4c(C)cc5c(OC)c6c(c(O)c5c4O[C@](OC)(C3O1)[C@@]21CO1)C(=O)CCC6` (stereo partly drawn) [compound 23, (2R,2′R,3a′R,13a′R)-2′-((Allyloxy)methyl)-12′-hydroxy-7′,13a′-dimethoxy-5′-methyl-3a′,4′,8′,9′,10′,13a′-hexahydro-2′H, 11′H-spiro[oxirane-2,1′-[2,4]epoxyfuro[3,2-b]naphtho[2.3-h]chromen]-11′-one]: 0.014 µM. `C#CCOCC12OC3c4c(C)cc5c(OC)c6c(c(O)c5c4O[C@](OC)(C3O1)[C@@]21CO1)C(=O)CCC6` (stereo partly drawn) [compound 24, (2R,2′R,3a′R,13a′R)-12′-Hydroxy-7′,13a′-dimethoxy-5′-methyl-2′-((prop-2-yn-1-yloxy)methyl)-3a′,4′,8′,9′,10′,13a′-hexahydro-2′H,11′H-spiro[oxirane-2,1′-[2,4]epoxyfuro[3,2-b]naphtho[2.3-h]chromen]-11′-one]: under “NCI-H460, 72 h”, the GI50 is 0.014 µM.

Turning to `COc1c2c(c(O)c3c4c(c(C)cc13)C1O[C@]3(CN=[N+]=[N-])O[C@H]1[C@@](OC)(O4)[C@@]31CO1)C(=O)CCC2` (stereo partly drawn) [compound 25, (2R,2′R,3a′R,13a′R)-2′-(Azidomethyl)-12′-hydroxy-7′,13a′-dimethoxy-5′-methyl-3a′, 4′,8′,9′,10′,13a′-hexahydro-2′H,11′H-spiro[oxirane-2,1′-[2,4]epoxyfuro[3,2-b]naphtho[2,3-h]chromen]-11′-one], the “Effect of the C16 modification on potency (in words)” value (shortened to “Effect of the C16 modification”) is reported as “good tolerance”. The GI50 (NCI-H460, 72 h) turned out to be 0.033 µM. Consider `COc1c2c(c(O)c3c4c(c(C)cc13)C1O[C@]3(CN)O[C@H]1[C@@](OC)(O4)[C@@]31CO1)C(=O)CCC2` (stereo partly drawn) [compound 26, (2R,2′R,3a′R,13a′R)-2′-(Aminomethyl)-12′-hydroxy-7′,13a′-dimethoxy-5′-methyl-3a′, 4′,8′,9′,10′, 13a′-hexahydro-2′H, 11′H-spiro[oxirane-2,1′-[2,4]epoxyfuro[3,2-b]naphtho[2,3-h]chromen]-11′-one], for which the “Effect of the C16 modification” value is listed as “good tolerance”. Besides, the GI50 under setting [1] was 0.01 µM. Take `COc1c2c(c(O)c3c4c(c(C)cc13)C1OC3(COCc5cn(Cc6ccccc6)nn5)OC1[C@@](OC)(O4)[C@@]31CO1)C(=O)CCC2` (stereo partly drawn) [compound 27, (2R,2′R,3a′R,13a′R)-2′-(((1-Benzyl-1H-1,2,3-triazol-4-yl)methoxy)methyl)-12′-hydroxy-7′,13a′-dimethoxy-5′-methyl-3a′,4′,8′,9′, 10′, 13a′-hexahydro-2′H,11′H-spiro [oxirane-2, 1′-[2,4]epoxyfuro[3,2-b]naphtho[2.3-h]chromen]-11′-one]: the “Effect of the C16 modification” value is recorded as “ablates potency”. The GI50 (NCI-H460, 72 h) was over 0.1 µM. For `COc1c2c(c(O)c3c4c(c(C)cc13)C1OC3(CO[C@@H]5O[C@H](COC(C)=O)[C@@H](OC(C)=O)[C@H](OC(C)=O)[C@H]5OC(C)=O)OC1[C@@](OC)(O4)[C@@]31CO1)C(=O)CCC2` (stereo partly drawn) [compound 28, (2R,3R,4S,5R,6R)-2-(Acetoxymethyl)-6-(((2R,13a′R)-12′-hydroxy-7′,13a′-dimethoxy-5′-methyl-11′-oxo-3a′,8′,9′,10′,11′,13a′-hexahydro-2′H,4′H-spiro [oxirane-2,1′-[2,4]epoxyfuro[3,2-b]naphtho[2,3-h]chromen]-2′-yl)methoxy) tetrahydro-2H-pyran-3,4,5-triyl triacetate], in that order: “poorly tolerated” and over 0.1 µM. Regarding `COc1c2c(c(O)c3c4c(c(C)cc13)C1OC3(COCC5OC(CO)C(O)C(O)C5O)OC1[C@@](OC)(O4)[C@@]31CO1)C(=O)CCC2` (stereo partly drawn) [compound 29, (2R,13a′R)-12′-Hydroxy-7′,13a′-dimethoxy-5′-methyl-2′-((((2R,3R,4S,5S,6R)-3,4,5-trihydroxy-6-(hydroxymethyl)tetrahydro-2H-pyran-2-yl)oxy)methyl)-3a′ 4′,8′,9′, 10′,13a′-hexahydro-2′H. 11′H-spiro [oxirane-2,1′-[2,4]epoxyfuro[3,2-b]naphtho[2,3-h]chromen]-11′-one], the “Effect of the C16 modification” value is given as “poorly tolerated”. `COc1c2c(c(O)c3c4c(c(C)cc13)C1OC3(COC5CC(C)(O)C(OC(C)=O)C(C)O5)OC1[C@@](OC)(O4)[C@@]31CO1)C(=O)CCC2` (stereo partly drawn) [compound 30, (25,3S,4R,6S)-4-Hydroxy-6-(((2R,13a′R)-12′-hydroxy-7′,13a′-dimethoxy-5′-methyl-11′-oxo-3a′,8′,9′,10′,11′,13a′-hexahydro-2′H,4′H-spiro [oxirane-2,1′-[2,4]epoxyfuro[3,2-b]naphtho[2,3-h]chromen]-2′-yl)methoxy)-2,4-dimethyltetrahydro-2H-pyran-3-yl acetate]: the “Effect of the C16 modification” value is on record as “well tolerated”. Further, it took 0.02 µM to inhibit growth (NCI-H460, 72 h) by half (GI50). For the compound `COc1c2c(c(O)c3c4c(c(C)cc13)C1OC3(CBr)OC1[C@@](OC)(O4)[C@@]31CO1)C(=O)CCC2` (stereo partly drawn) [compound 32, (2S,2′S,3a′R,13a′R)-2′-(Bromomethyl)-12′-hydroxy-7′,13a′-dimethoxy-5′-methyl-3a′,4′,8′9′,10′,13a′-hexahydro-2′H,11′H-spiro [oxirane-2,1′-[2,4]epoxyfuro[3,2-b]naphtho[2,3-h]chromen]-11′-one], the “Effect of the C16 modification” value is “good tolerance”. Also, under setting [1], the GI50 came out at 0.02 µM.
